Data: ChEMBL document CHEMBL1201862, “PubChem BioAssay data set” (2004)
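Exposure lasted 48 hours, with cells grown in 96-well plates and compounds tested at five concentrations. Here, GI50 denotes the concentration required for 50% inhibition of growth.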 Activity calls are given as the source filed them. Cut-off read from the data, not from the text of the source: active = GI50 up to about 1.1 µM and inactive = higher.

Assays:
Test in all cases: NCI tumour cell line growth inhibition, 48 h
[1] = system: A498
[2] = system: A549
[3] = system: ACHN
[4] = system: HCC 2998
[5] = system: HCT-15
[6] = system: KM12
[7] = system: LOX IMVI
[8] = system: MDA-MB-231
[9] = system: Malme-3M
[10] = system: NCI-H226
[11] = system: NCI-H23
[12] = system: NCI/ADR-RES
[13] = system: OVCAR-3
[14] = system: PC-3
[15] = system: RPMI-8226
[16] = system: SF-268
[17] = system: SK-OV-3
[18] = system: SN12C
[19] = system: SW-620
[20] = system: UO-31

Measured: GI50

c1ccc2cc(CN3CCC(C4CCN(Cc5ccc6ccccc6c5)CC4)CC3)ccc2c1
3.18 µM: [5]
active: [4] 1.1 µM
inactive: [1] 10.8 µM | [2] 4.2 µM | [3] 4.99 µM | [6] 2.97 µM | [7] 2.22 µM | [8] 4.82 µM | [9] 1.19 µM | [10] 11.4 µM | [11] 11.4 µM | [12] 6.79 µM | [13] 4.59 µM | [14] 9.42 µM | [15] 2.48 µM | [16] 8.53 µM | [17] 10.1 µM | [18] 21.8 µM | [19] 2.74 µM | [20] 1.34 µM

CN(C)c1ccc(-c2ccc(N(C)C)c3n[se]nc23)c2n[se]nc12
> 100 µM: [5]
inactive: [1] > 100 µM | [2] > 100 µM | [3] > 100 µM | [4] > 100 µM | [6] > 100 µM | [7] > 100 µM | [8] > 100 µM | [9] > 100 µM | [10] > 100 µM | [11] > 100 µM | [12] > 100 µM | [13] > 100 µM | [14] > 100 µM | [15] > 100 µM | [16] > 100 µM | [17] > 100 µM | [18] > 100 µM | [19] > 100 µM | [20] > 100 µM

COc1cccc(Nc2nc(N)nc(N)c2N=O)c1
22 µM: [5]
inactive: [1] 21.7 µM | [2] 31 µM | [3] 17.3 µM | [4] 17.4 µM | [6] 29.1 µM | [7] 15.1 µM | [8] 28.5 µM | [9] 29.2 µM | [10] 22.5 µM | [11] 15.3 µM | [12] 17.1 µM | [13] 15.6 µM | [14] 10.2 µM | [15] 16.9 µM | [16] 14.7 µM | [17] 29.2 µM | [18] 17.8 µM | [19] 31.3 µM | [20] 9.4 µM

COc1cc2c(cc1OCCCCCN1C(=O)c3cccc4cccc(c34)C1=O)N=C[C@@H]1CCCN1C2=O
0.331 µM: [5]
active: [1] 0.31 µM | [2] 0.535 µM | [3] 0.167 µM | [4] 0.3 µM | [6] 0.231 µM | [7] 0.126 µM | [8] 0.286 µM | [9] 0.163 µM | [10] 0.177 µM | [11] 0.222 µM | [12] 0.421 µM | [13] 0.184 µM | [14] 0.282 µM | [15] 0.119 µM | [16] 0.207 µM | [17] 0.514 µM | [18] 0.336 µM | [19] 0.278 µM | [20] 0.153 µM

COc1ccc(/C=C2\N=C(c3ccccc3)N(NC3=NC(=O)CC(=O)N3)C2=O)cc1
inactive: [1] > 100 µM | [2] > 100 µM | [3] > 100 µM | [4] > 100 µM | [6] > 100 µM | [8] > 100 µM | [9] > 100 µM | [10] > 100 µM | [11] > 100 µM | [12] > 100 µM | [13] > 100 µM | [14] > 100 µM | [15] > 100 µM | [16] > 100 µM | [17] > 100 µM | [18] > 100 µM | [19] > 100 µM | [20] > 100 µM
> 100 µM: [5]

CN1CCN(Cn2nc(-c3ccccc3)n(/N=C/c3ccc(-c4ccc(Cl)cc4Cl)o3)c2=S)CC1
4.18 µM: [5]
inactive: [1] 26 µM | [4] 12.8 µM | [6] 9.73 µM | [7] 13 µM | [8] 13.9 µM | [10] 20 µM | [11] 18.7 µM | [12] 16 µM | [13] 11.7 µM | [14] 8.43 µM | [15] 8.61 µM | [16] 5.83 µM | [17] 13.5 µM | [19] 11.8 µM | [20] 14.8 µM

CCOCCOCCOCc1nc(C#N)c(N)o1
> 100 µM: [5]
inactive: [1] > 100 µM | [2] > 100 µM | [3] > 100 µM | [4] > 100 µM | [6] > 100 µM | [7] > 100 µM | [8] > 100 µM | [10] > 100 µM | [11] > 100 µM | [12] > 100 µM | [13] > 100 µM | [14] > 100 µM | [15] > 100 µM | [16] > 100 µM | [17] > 100 µM | [18] > 100 µM | [19] > 100 µM | [20] > 100 µM

CC1=C(CO)C(=O)O[C@@H]([C@@H](C)[C@H]2CC[C@H]3[C@@H]4C[C@@H](O)[C@@]5(O)CC=CC(=O)[C@]5(C)[C@H]4CC[C@]23C)C1 [JABOROSALACTONE D]
inactive: [1] 18.7 µM | [2] 38 µM | [3] 26.8 µM | [4] 30.3 µM | [6] 19.8 µM | [7] 23.5 µM | [8] 31.3 µM | [9] 15.7 µM | [10] 35.8 µM | [11] 21.2 µM | [12] 21.1 µM | [13] 36 µM | [14] 47 µM | [15] 24.9 µM | [16] 92.3 µM | [17] 63.8 µM | [18] 42.4 µM | [19] 21.7 µM
16.4 µM: [5]

CCOC(=O)c1sc2c(c1OC(=O)c1ccccc1)c(=O)n(-c1ccccc1)c(=S)n2-c1ccccc1
45.5 µM: [5]
inactive: [1] 15.5 µM | [2] 26.1 µM | [3] 32 µM | [4] 25.1 µM | [6] 40.6 µM | [7] 40.3 µM | [8] 28.5 µM | [9] 21.7 µM | [10] > 100 µM | [11] 21 µM | [12] 19.1 µM | [13] 24.5 µM | [14] 33.7 µM | [15] 40.2 µM | [16] 38.5 µM | [17] 38.2 µM | [18] > 100 µM | [19] 44.6 µM

Cc1ccc(S(=O)(=O)Nn2c(S)c(C#N)c(-c3ccc([N+](=O)[O-])cc3)c(C#N)c2=O)cc1
inactive: [1] 89.1 µM | [2] 47.9 µM | [3] 51.5 µM | [4] 31.6 µM | [6] 31.6 µM | [7] 14.8 µM | [8] 17.7 µM | [9] 61.5 µM | [10] 40.6 µM | [12] 33 µM | [14] 27.2 µM | [15] 16.4 µM | [16] 30.7 µM | [17] 82 µM | [18] 19.1 µM | [19] 19.2 µM
17.3 µM: [5]

Nc1cnc(Nc2cccc3ccccc23)o1
inactive: [1] > 10 µM | [2] > 10 µM | [3] > 10 µM | [4] > 10 µM | [6] > 10 µM | [7] > 10 µM | [8] > 10 µM | [9] > 10 µM | [10] > 10 µM | [11] > 10 µM | [12] > 10 µM | [13] > 10 µM | [14] > 10 µM | [16] > 10 µM | [17] > 10 µM | [18] > 10 µM | [19] > 10 µM | [20] > 10 µM
> 10 µM: [5]

O=c1c2nc[nH]c2n(-c2ccccc2)c(=S)n1-c1ccccc1
> 100 µM: [5]
inactive: [1] > 100 µM | [2] > 100 µM | [3] > 100 µM | [4] > 100 µM | [6] > 100 µM | [7] > 100 µM | [8] > 100 µM | [10] > 100 µM | [11] > 100 µM | [12] > 100 µM | [13] > 100 µM | [14] > 100 µM | [15] > 100 µM | [16] > 100 µM | [17] > 100 µM | [18] > 100 µM | [19] > 100 µM | [20] > 100 µM

C/C(Nc1ccc(Cl)cc1Cl)=C1/CCOC1=O
inactive: [1] 59.8 µM | [2] 78.7 µM | [3] 92.9 µM | [4] > 100 µM | [6] > 100 µM | [7] > 100 µM | [8] 19.9 µM | [9] > 100 µM | [10] > 100 µM | [11] 59.3 µM | [12] 77.6 µM | [13] > 100 µM | [14] > 100 µM | [15] > 100 µM | [16] 30.8 µM | [18] 41.5 µM | [19] > 100 µM | [20] 40.8 µM
> 100 µM: [5]

OCCNc1ncnc2c1ncn2C1OC(CO)C(O)C1O (centres undefined)
42.5 µM: [5]
inactive: [1] 57.7 µM | [2] > 100 µM | [3] 71.3 µM | [4] 64.9 µM | [6] > 100 µM | [7] 40.4 µM | [8] 25.5 µM | [9] > 100 µM | [11] > 100 µM | [12] 50.6 µM | [13] 52.1 µM | [14] 47.4 µM | [15] 85.7 µM | [16] 91.6 µM | [17] > 100 µM | [18] 80.5 µM | [19] > 100 µM | [20] 57.4 µM

O/N=C(/CC(O)(C(F)(F)F)C(F)(F)F)c1ccccc1
inactive: [1] > 10 µM | [2] > 10 µM | [3] > 10 µM | [4] > 10 µM | [6] > 10 µM | [7] > 10 µM | [8] > 10 µM | [9] > 10 µM | [10] > 10 µM | [11] > 10 µM | [12] > 10 µM | [13] > 10 µM | [14] > 10 µM | [15] > 10 µM | [16] > 10 µM | [17] > 10 µM | [18] > 10 µM | [19] > 10 µM
> 10 µM: [5]
